The text below walks through data of patent publication US20100119612A1, “NANOPARTICLES COMPRISING NON-CRYSTALLINE DRUG” (Bend Research, Inc, priority 2007, published 2010).

Converted amounts (≈) assume the structure as drawn.

What is called logP is the decadic logarithm of the partition coefficient of the neutral form, usually between octanol and water. Usually solubility stands for the concentration that dissolves in the medium under given conditions. Low readings indicate a poorly soluble substance, high ones a readily soluble substance.

A short description of one series: Log P of the drug. It is filed as physicochemical. The conditions noted are these: octanol/water; method not stated. An excerpt:
By hydrophobic is meant that the Log P of the drug is at least 4. The LogP of the drug may be at least 5, at least 6, or even at least 7. Log P, defined as the base 10 logarithm of the ratio of (1) the drug concentration in an octanol phase to (2) the drug concentration (in its unionized form if the drug may be ionized) in a water phase when the two phases are in equilibrium with each other, is a widely accepted measure of hydrophobicity. Log P may be measured experimentally or calculated using methods known in the art. When using a calculated value for Log P, the highest value calculated using any generally accepted method for calculating Log P is used. […] Preferably the Log P value is calculated by using the average value estimated using Crippen's, Viswanadhan's, and Broto's fragmentation methods.

Series [1] in a line: Solubility of crystalline drug in 2 wt % NaTC/POPC. The format is physicochemical. The conditions noted are these: 2 wt % NaTC/POPC solution, fassgf or other biorelevant, thermodynamic from solid.
A short description of series [2]: Measurement of free drug by 19F NMR. The format is physicochemical. The note with it: after 120 minutes; deuterated PBS with 2.0 wt % NaTC/POPC; 37° C.; 1000 μg/mL Drug 1 if all dissolved.
Experimental: Alternatively, free drug for a nanoparticle suspension can be measured with nuclear magnetic resonance (NMR). In this method, the nanoparticles are equilibrated in an NMR tube with a buffered deuterium oxide solution. A specified amount of a reference standard is also added to the sample, such that the final concentration of the standard in the tube is known. An NMR spectrum is then acquired, and the integration of the drug peak(s) is compared to that of the reference standard to determine the actual dissolved drug concentration. Depending on the drug, either proton NMR (in which case a suitable reference standard is deuterated trimethylsilyl propionic acid) or fluorine NMR (in which case a suitable reference standard is trifiuoroacetic acid) may be employed. Because NMR is sensitive only to materials in the solution state or in micelles, only the drug that is not sequestered in nanopartides is measured by this method.
The solution was mixed, and an ^19F internal standard solution of trifluoroacetic acid (TFA) was added. […] This solution was vortexed 1 minute, and then carefully transferred to an 8 mm glass NMR tube.
Fluorine spectra of the sample was recorded at 282.327 MHz on a Varian Gemini 2000, 300 MHz NMR equipped with a Nalorac 8 mm indirect detection probe. […] Drug resonances were integrated relative to the internal standard peak and the drug concentration determined. […]
A short description of series [3]: In vivo evaluation in dogs (Example 2, oral suspension, plasma LC/MS/MS). More on the design: species or system male beagle dogs. The note with it: fasted dogs, oral gavage, approx. 50 mL of 1.2 mgA/mL suspension. How it is done:
The nanoparticles of Example 2 were evaluated in vivo in dogs. Samples were dosed orally as a suspension to 6 male beagle dogs.
Animals were fasted overnight (at least 10 hours predose) through 8 hours postdose. Approximately 50 mL of suspension (1.2 mgA/mL) was administered to each dog via oral gavage, followed by approximately 5 mL water. Whole-blood samples (7-mL sodium heparin Vacutainer tubes) were taken from the jugular vein before dosing and at 0.5, 1, 2, 3, 4, 6, 8, 12, 24, and 28 hours after dosing. […] was harvested into tubes containing K2EDTA anticoagulant. Blood was maintained on wet ice prior to centrifugation to obtain plasma. Centrifugation began within 1 hour of collection, and samples were centrifuged at 2500 rpm for 15 minutes. Plasma was maintained on dry ice prior to storage at approximately −70° C. Plasma was analyzed using liquid chromatography with tandem mass spectrometry (LC/MS/MS). Crystalline Drug 1 was tested for comparison.

With `CC[C@@H]1C[C@H](N(Cc2cc(C(F)(F)F)cc(C(F)(F)F)c2)C(C)=O)c2cc(C(F)(F)F)ccc2N1C(=O)OC(C)C` [Drug 2, [2R,4S] 4-[acetyl-(3,5-bis-trifluoromethyl-benzyl)-amino]-2-ethyl-6-trifluoromethyl-3,4-dihydro-2H-quinoline-1-carboxylic acid isopropyl ester], the logP in the series “Log P of the drug” was roughly 7.55. The compound also yielded a solubility in series [1] of roughly 8 µg/mL (≈ 13.4 µM).

In the case of `CCOC(=O)N1c2ccc(C(F)(F)F)cc2[C@@H](N(Cc2cc(C(F)(F)F)cc(C(F)(F)F)c2)C(=O)OC)C[C@H]1CC` [Drug 1, [2R,4S] 4-[(3,5-bis-trifluoromethyl-benzyl)-methoxycarbonyl-amino]-2-ethyl-6-trifluoromethyl-3,4-dihydro-2H-quinoline-1-carboxylic acid ethyl ester], the “Free Drug” value in series [2] was found to be 15 µg/mL. For the same compound, in series [3], the “AUC0-∞” value was “<LOQ”, the Cmax result is listed as “<LOQ*” and the Tmax entry is listed as “<LOQ”. Besides, in “Log P of the drug”, the logP is roughly 7.55.
